Data published in ChEMBL document CHEMBL1144271, “Carbonic anhydrase inhibitors: synthesis and inhibition of cytosolic/tumor-associated carbonic anhydrase isozymes I, II, and IX with bis-sulfamates” (Bioorg Med Chem Lett, 2005).
pKi: −log10 of the molar value.

How the values were obtained:
Carbonic anhydrase 9 = Carbonic anhydrase 9 (Homo sapiens, UniProt Q16790)
Carbonic anhydrase 1 = Carbonic anhydrase 1 (Homo sapiens, UniProt P00915)
Sequence of Carbonic anhydrase 1 (P00915 whole entry): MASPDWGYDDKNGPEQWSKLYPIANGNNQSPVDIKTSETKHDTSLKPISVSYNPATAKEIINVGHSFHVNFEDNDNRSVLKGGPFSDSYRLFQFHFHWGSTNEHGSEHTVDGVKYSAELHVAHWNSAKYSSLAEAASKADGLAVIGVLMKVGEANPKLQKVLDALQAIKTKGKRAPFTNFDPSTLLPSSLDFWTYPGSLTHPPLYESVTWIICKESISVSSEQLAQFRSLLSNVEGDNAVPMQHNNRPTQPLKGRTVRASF

Compound	pKi (Carbonic anhydrase 9)	pKi (Carbonic anhydrase 1)
NS(=O)(=O)OCCCCCCCOS(N)(=O)=O	8.00	
C[C@]12CC[C@@H]3c4ccc(OS(N)(=O)=O)cc4CC[C@H]3[C@@H]1CC[C@@H]2OS(N)(=O)=O		5.22
NS(=O)(=O)OCc1ccc(COS(N)(=O)=O)cc1	7.21	< 7.70
